Measured values reported in ChEMBL document CHEMBL6120985, “Discovery of a potent PARP1 PROTAC as a chemosensitizer for the treatment of colorectal cancer” (Eur J Med Chem, 2025).

Columns and labels:
SW-620 = assay: Cytotoxicity against human SW620 cells assessed as inhibition of cell growth measured after 72 hrs by CCK-8 method; assay type: functional, cell-based; conditions: SW-620, 72 h
LoVo = assay: Cytotoxicity against human LoVo cells assessed as inhibition of cell growth measured after 72 hrs by CCK-8 method; assay type: functional, cell-based
[1] = Cytotoxicity against human BEAS-2B cells assessed as inhibition of cell growth measured after 72 hrs by CCK-8 method; assay type: toxicity, cell-based
[2] = Cytotoxicity against HEK293T cells assessed as inhibition of cell growth measured after 72 hrs by CCK-8 method; assay type: toxicity, cell-based, HEK-293T; conditions: human
[3] = target: T1, Protein cereblon/Poly [ADP-ribose] polymerase 1 (Homo sapiens, UniProt P09874+Q96SW2); assay: PROTAC activity at CRBN/PARP1 in human HCT-116 cells assessed as degradation of PARP1; assay type: cell-based
Target sequence in this assay (P09874 whole entry): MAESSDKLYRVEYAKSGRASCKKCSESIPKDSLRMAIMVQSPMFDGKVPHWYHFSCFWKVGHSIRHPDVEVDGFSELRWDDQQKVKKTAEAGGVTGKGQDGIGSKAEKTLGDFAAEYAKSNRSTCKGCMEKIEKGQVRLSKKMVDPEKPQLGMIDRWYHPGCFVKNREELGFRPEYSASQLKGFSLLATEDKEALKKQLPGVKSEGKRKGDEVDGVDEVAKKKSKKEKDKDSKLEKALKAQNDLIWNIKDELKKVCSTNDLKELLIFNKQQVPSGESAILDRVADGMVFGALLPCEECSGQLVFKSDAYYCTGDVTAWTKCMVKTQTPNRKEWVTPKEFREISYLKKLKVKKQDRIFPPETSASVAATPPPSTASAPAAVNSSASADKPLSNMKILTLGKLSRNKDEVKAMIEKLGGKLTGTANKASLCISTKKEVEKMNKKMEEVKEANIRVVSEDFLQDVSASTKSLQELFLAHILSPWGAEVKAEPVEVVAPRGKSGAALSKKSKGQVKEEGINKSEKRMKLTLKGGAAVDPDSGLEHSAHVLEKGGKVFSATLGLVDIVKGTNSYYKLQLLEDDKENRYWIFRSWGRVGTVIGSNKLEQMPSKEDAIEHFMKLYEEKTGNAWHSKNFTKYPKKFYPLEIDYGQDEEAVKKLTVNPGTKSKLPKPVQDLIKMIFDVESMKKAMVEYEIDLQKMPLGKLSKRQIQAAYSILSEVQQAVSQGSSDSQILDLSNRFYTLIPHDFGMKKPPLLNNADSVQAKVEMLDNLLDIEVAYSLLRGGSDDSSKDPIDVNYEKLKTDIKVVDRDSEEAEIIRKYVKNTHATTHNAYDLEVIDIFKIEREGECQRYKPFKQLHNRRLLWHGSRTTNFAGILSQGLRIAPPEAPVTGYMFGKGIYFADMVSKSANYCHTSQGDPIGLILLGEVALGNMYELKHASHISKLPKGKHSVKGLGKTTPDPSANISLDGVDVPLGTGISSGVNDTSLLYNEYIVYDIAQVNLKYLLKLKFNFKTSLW
Target sequence in this assay (Q96SW2 whole entry): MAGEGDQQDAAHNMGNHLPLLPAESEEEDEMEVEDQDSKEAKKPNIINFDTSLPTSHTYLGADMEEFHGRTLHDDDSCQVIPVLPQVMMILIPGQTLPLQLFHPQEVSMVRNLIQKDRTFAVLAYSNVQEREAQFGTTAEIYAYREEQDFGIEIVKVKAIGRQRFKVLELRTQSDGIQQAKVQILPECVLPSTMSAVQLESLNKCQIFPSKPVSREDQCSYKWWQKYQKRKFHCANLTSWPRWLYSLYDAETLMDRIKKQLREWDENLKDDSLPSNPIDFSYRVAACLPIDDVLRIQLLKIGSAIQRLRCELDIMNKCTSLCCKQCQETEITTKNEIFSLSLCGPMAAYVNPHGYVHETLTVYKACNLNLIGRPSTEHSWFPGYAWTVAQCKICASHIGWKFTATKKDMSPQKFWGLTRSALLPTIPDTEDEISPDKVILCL

[4] = target: T1, Protein cereblon/Poly [ADP-ribose] polymerase 1; assay: PROTAC activity at CRBN/PARP1 in human HCT-116 cells assessed as maximum degradation of PARP1 relative to control; assay type: cell-based
Target sequence in this assay (P09874 2-1014 limits assumed): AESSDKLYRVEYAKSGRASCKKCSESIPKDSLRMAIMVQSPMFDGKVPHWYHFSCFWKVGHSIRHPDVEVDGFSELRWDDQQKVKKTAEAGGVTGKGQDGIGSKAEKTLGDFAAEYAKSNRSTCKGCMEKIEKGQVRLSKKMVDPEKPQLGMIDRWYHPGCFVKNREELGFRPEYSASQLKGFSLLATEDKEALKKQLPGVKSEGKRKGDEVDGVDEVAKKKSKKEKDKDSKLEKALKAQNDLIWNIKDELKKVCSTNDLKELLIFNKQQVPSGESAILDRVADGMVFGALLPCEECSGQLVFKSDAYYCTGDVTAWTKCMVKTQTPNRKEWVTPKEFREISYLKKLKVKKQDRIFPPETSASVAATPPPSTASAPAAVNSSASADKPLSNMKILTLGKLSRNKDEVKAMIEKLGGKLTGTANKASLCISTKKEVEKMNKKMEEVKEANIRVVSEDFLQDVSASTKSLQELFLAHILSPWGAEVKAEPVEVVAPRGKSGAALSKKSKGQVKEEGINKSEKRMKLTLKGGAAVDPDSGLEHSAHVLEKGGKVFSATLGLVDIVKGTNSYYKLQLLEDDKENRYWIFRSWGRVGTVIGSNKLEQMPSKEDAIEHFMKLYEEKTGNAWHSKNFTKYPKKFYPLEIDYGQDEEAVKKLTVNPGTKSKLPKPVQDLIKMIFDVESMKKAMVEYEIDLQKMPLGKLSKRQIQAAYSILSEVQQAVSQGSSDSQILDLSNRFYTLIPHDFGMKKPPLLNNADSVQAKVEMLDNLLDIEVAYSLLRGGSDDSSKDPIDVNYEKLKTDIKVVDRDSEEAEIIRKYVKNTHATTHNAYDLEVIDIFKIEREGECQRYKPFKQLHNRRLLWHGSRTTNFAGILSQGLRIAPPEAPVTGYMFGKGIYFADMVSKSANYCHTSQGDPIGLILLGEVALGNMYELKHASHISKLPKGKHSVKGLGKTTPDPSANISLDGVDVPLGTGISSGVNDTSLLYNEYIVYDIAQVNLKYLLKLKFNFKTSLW
Target sequence in this assay (Q96SW2 whole entry partner): as the sequence (Q96SW2 whole entry) above

HCT-116 [5] = assay: Induction of apoptosis in human HCT-116 cells assessed as viable cells at 2.5 nM measured after 72 hrs by annexin V/FITC and PI staining based flow cytometry analysis (reference value: 89.6%); assay type: functional; conditions: read-out: Activity
HCT-116 [6] = assay: Induction of apoptosis in human HCT-116 cells assessed as late apoptotic cells at 2.5 nM measured after 72 hrs by annexin V/FITC and PI staining based flow cytometry analysis (reference value: 6.80%); assay type: functional
HCT-116 [7] = assay: Induction of apoptosis in human HCT-116 cells assessed as necrotic cells at 2.5 nM measured after 72 hrs by annexin V/FITC and PI staining based flow cytometry analysis (reference value: 0.16%); assay type: functional
HCT-116 [8] = assay: Induction of apoptosis in human HCT-116 cells assessed as early apoptotic cells at 2.5 nM measured after 72 hrs by annexin V/FITC and PI staining based flow cytometry analysis (reference value: 3.43%); assay type: functional
HCT-116 [9] = assay: Cytotoxicity against human HCT-116 cells assessed as inhibition of cell growth measured after 72 hrs by CCK-8 method; assay type: functional, cell-based; conditions: HCT-116, 72 h

| DC50 [3] [µM] | Emax [4] [%] | SMILES | further results |
| --- | --- | --- | --- |
| 0.23 | 65.1 | NC(=O)c1cccc2cn(-c3ccc([C@@H]4CCCN(C(=O)CC5CCN(C(=O)CC6CCN(CC7CCN(c8ccc9c(c8)C(=O)N(C8CCC(=O)NC8=O)C9=O)CC7)CC6)CC5)C4)cc3)nc12 (some centres undefined) |  |
| > 20 | 15.7 | NC(=O)c1cccc2cn(-c3ccc([C@@H]4CCCN(C(=O)C5CCN(C(=O)C6CCN(c7ccc8c(c7)C(=O)N(C7CCC(=O)NC7=O)C8=O)CC6)CC5)C4)cc3)nc12 (some centres undefined) |  |
| > 20 | 32.8 | NC(=O)c1cccc2cn(-c3ccc([C@@H]4CCCN(C(=O)C5CCN(CC6CCN(c7ccc8c(c7)C(=O)N(C7CCC(=O)NC7=O)C8=O)C6)CC5)C4)cc3)nc12 (some centres undefined) |  |
| 0.06 | 78.9 | NC(=O)c1cccc2cn(-c3ccc([C@@H]4CCCN(C(=O)COCCOCCOCCOCCNc5ccc6c(c5)C(=O)N(C5CCC(=O)NC5=O)C6=O)C4)cc3)nc12 (some centres undefined) |  |
| > 20 |  | NC(=O)c1cccc2cn(-c3ccc([C@@H]4CCCN(C(=O)CC5CCN(CC6CCN(c7ccc8c(c7)C(=O)N(C7CCC(=O)NC7=O)C8=O)C6)CC5)C4)cc3)nc12 (some centres undefined) |  |
| > 20 | 37.4 | NC(=O)c1cccc2cn(-c3ccc([C@@H]4CCCN(C(=O)COCCOCCOCCNc5ccc6c(c5)C(=O)N(C5CCC(=O)NC5=O)C6=O)C4)cc3)nc12 (some centres undefined) |  |
| > 20 | 31.8 | NC(=O)c1cccc2cn(-c3ccc([C@@H]4CCCN(C(=O)CC5CCN(CC6CN(c7ccc8c(c7)C(=O)N(C7CCC(=O)NC7=O)C8=O)C6)CC5)C4)cc3)nc12 (some centres undefined) |  |
| 2.21 | 58.8 | NC(=O)c1cccc2cn(-c3ccc([C@@H]4CCCN(C(=O)CCCCCCCCNc5ccc6c(c5)C(=O)N(C5CCC(=O)NC5=O)C6=O)C4)cc3)nc12 (some centres undefined) |  |
| 0.5 | 83.6 | NC(=O)c1cccc2cn(-c3ccc([C@@H]4CCCN(C(=O)CC5CCN(CCC6CCN(CC7CN(c8ccc9c(c8)C(=O)N(C8CCC(=O)NC8=O)C9=O)C7)CC6)CC5)C4)cc3)nc12 (some centres undefined) |  |
| 19 | 53.9 | NC(=O)c1cccc2cn(-c3ccc([C@@H]4CCCN(C(=O)C5CCN(CC6CN(c7ccc8c(c7)C(=O)N(C7CCC(=O)NC7=O)C8=O)C6)CC5)C4)cc3)nc12 (some centres undefined) |  |
| > 20 | 33.6 | NC(=O)c1cccc2cn(-c3ccc([C@@H]4CCCN(C(=O)CC5CCN(CCC6CCN(CC7CCN(c8ccc9c(c8)C(=O)N(C8CCC(=O)NC8=O)C9=O)C7)CC6)CC5)C4)cc3)nc12 (some centres undefined) |  |
| > 20 | 35.6 | NC(=O)c1cccc2cn(-c3ccc([C@@H]4CCCN(C(=O)CC5CCN(C(=O)C6CCN(c7ccc8c(c7)C(=O)N(C7CCC(=O)NC7=O)C8=O)CC6)CC5)C4)cc3)nc12 (some centres undefined) |  |
| > 20 | 30.2 | NC(=O)c1cccc2cn(-c3ccc([C@@H]4CCCN(C(=O)C5CCN(CC6CCN(c7ccc8c(c7)C(=O)N(C7CCC(=O)NC7=O)C8=O)CC6)CC5)C4)cc3)nc12 (some centres undefined) |  |
| 15.6 | 59.4 | NC(=O)c1cccc2cn(-c3ccc([C@@H]4CCCN(C(=O)CC5CCN(CC6CCN(c7ccc8c(c7)C(=O)N(C7CCC(=O)NC7=O)C8=O)CC6)CC5)C4)cc3)nc12 (some centres undefined) |  |

Continued, compound first:

| SMILES | DC50 [3] [µM] | Emax [4] [%] | further results |
| --- | --- | --- | --- |
| O=C(CCCCCCCCCCC(=O)N1CCN(C(=O)c2cc(Cc3n[nH]c(=O)c4ccccc34)ccc2F)CC1)NCCNc1cccc2c1C(=O)N(C1CCC(=O)NC1=O)C2=O (centres undefined) |  |  | IC50 (SW-620): > 10 µM; IC50 (LoVo): > 10 µM; IC50 at 72 h [1]: 3.7 µM; IC50 at 72 h [2]: 1.86 µM |
| NC(=O)c1cccc2cn(-c3ccc([C@@H]4CCCN(C(=O)CCCCNc5ccc6c(c5)C(=O)N(C5CCC(=O)NC5=O)C6=O)C4)cc3)nc12 (some centres undefined) | > 20 | 29.8 |  |
| NC(=O)c1cccc2cn(-c3ccc([C@@H]4CCCN(C(=O)CC5CCN(CCC6CCN(CC7CCN(c8ccc9c(c8)C(=O)N(C8CCC(=O)NC8=O)C9=O)CC7)CC6)CC5)C4)cc3)nc12 (some centres undefined) | 0.04 | 57.1 |  |
| NC(=O)c1cccc2cn(-c3ccc([C@@H]4CCCN(C(=O)CC5CCN(C(=O)CC6CCN(c7ccc8c(c7)C(=O)N(C7CCC(=O)NC7=O)C8=O)CC6)CC5)C4)cc3)nc12 (some centres undefined) | > 20 |  |  |
| CCc1c2c(nc3ccc(O)cc13)-c1cc3c(c(=O)n1C2)COC(=O)[C@]3(O)CC [7-ETHYL-10-HYDROXYCAMPTOTHECIN] |  |  | viability at 0.0025 µM (HCT-116 [5]): 76.7%; Activity (HCT-116 [6]): 17.1%; Activity (HCT-116 [7]): 0.77%; Activity (HCT-116 [8]): 5.48%; IC50 (LoVo): 0.0029 µM; IC50 (HCT-116 [9]): 0.0029 µM |
| NC(=O)c1cccc2cn(-c3ccc([C@@H]4CCCN(C(=O)CC5CCN(C(=O)CC6CCN(CC7CN(c8ccc9c(c8)C(=O)N(C8CCC(=O)NC8=O)C9=O)C7)CC6)CC5)C4)cc3)nc12 (some centres undefined) | 16.3 | 47.6 |  |
| NC(=O)c1cccc2cn(-c3ccc([C@@H]4CCCN(C(=O)CCCCCCNc5ccc6c(c5)C(=O)N(C5CCC(=O)NC5=O)C6=O)C4)cc3)nc12 (some centres undefined) | > 20 | 37.3 |  |
| NC(=O)c1cccc2cn(-c3ccc([C@@H]4CCCN(C(=O)CC5CCN(C(=O)CC6CCN(C(=O)C7CCN(c8ccc9c(c8)C(=O)N(C8CCC(=O)NC8=O)C9=O)CC7)CC6)CC5)C4)cc3)nc12 (some centres undefined) | > 20 | 6.96 |  |
| NC(=O)c1cccc2cn(-c3ccc([C@@H]4CCCN(C(=O)COCCOCCOCCOCCOCCNc5ccc6c(c5)C(=O)N(C5CCC(=O)NC5=O)C6=O)C4)cc3)nc12 (some centres undefined) | 19.1 | 47.7 |  |
| NC(=O)c1cccc2cn(-c3ccc([C@@H]4CCCN(C(=O)COCCOCCNc5ccc6c(c5)C(=O)N(C5CCC(=O)NC5=O)C6=O)C4)cc3)nc12 (some centres undefined) | > 20 | 49.1 |  |
| NC(=O)c1cccc2cn(-c3ccc([C@@H]4CCCN(C(=O)CC5CCN(CCC6CCN(c7ccc8c(c7)C(=O)N(C7CCC(=O)NC7=O)C8=O)CC6)CC5)C4)cc3)nc12 (some centres undefined) | > 20 | 30.1 |  |
| NC(=O)c1cccc2cn(-c3ccc([C@@H]4CCCN(CCC5CCN(CCC6CCN(CC7CN(c8ccc9c(c8)C(=O)N(C8CCC(=O)NC8=O)C9=O)C7)CC6)CC5)C4)cc3)nc12 (some centres undefined) | 0.03 | 71 |  |
| NC(=O)c1cccc2cn(-c3ccc([C@@H]4CCCNC4)cc3)nc12 [NIRAPARIB] |  |  | IC50 (SW-620): 0.49 µM |
| NC(=O)c1cccc2cn(-c3ccc([C@@H]4CCCN(C(=O)CC5CCN(C(=O)CC6CCN(CC7CCN(c8ccc9c(c8)C(=O)N(C8CCC(=O)NC8=O)C9=O)C7)CC6)CC5)C4)cc3)nc12 (some centres undefined) | 20.1 | 49.8 |  |
